Results published in the supplement of paper PMC4862054.
“And” between values parts separate entries of the source, which are not always exact repeats. Equal values may be shown once.

Assays:
Settings in all cases: incubation time: 72 h
BT-474 [1] = test: drug sensitivity score (DSS), CellTiter-Blue viability (DSS (AUC-based score)); higher = stronger viability inhibition; extreme values may be limits of the assay
Experimental: (§1)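 DSRT with the CellTiter-Blue (resazurin reduction) viability readout, fluorescence 560/590 nm, 72 h incubation. Plates were normalised to DMSO and benzethonium chloride controls. DSS is computed from the area under the fitted dose-response curve (5 or 9 concentrations).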

BT-549 [2] = test: as above
Experimental: as §1

CAL-120 [3] = test: as above
Experimental: as §1

CAL-51 = test: as above
Experimental: as §1

CAL-85-1 = test: as above
Experimental: as §1

DU-4475 = test: as above
Experimental: as §1

HCC1143 [4] = test: as above
Experimental: as §1

HCC1599 = test: as above
Experimental: as §1

HCC1937 [5] = test: as above
Experimental: as §1

HDQ-P1 = test: as above
Experimental: as §1

Hs578T = test: as above
Experimental: as §1

MDA-MB-231 [6] = test: as above
Experimental: as §1

MDA-MB-436 [7] = test: as above
Experimental: as §1

MDA-MB-453 = test: as above
Experimental: as §1

MFM-223 [8] = test: as above
Experimental: as §1

SK-BR-3 = test: as above
Experimental: as §1

BT-474 [9] = test: drug sensitivity score (DSS), CellTiter-Glo (DSS (AUC-based score)); higher = stronger drug effect (viability inhibition or cytotoxicity); extreme values may be limits of the assay
Procedure, shortened: (§2)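 Plates with 384 wells held compound at 5 concentrations in 10-fold steps over a 10,000-fold range specific to each compound. Breast cancer cell lines were added in 20 µl suspension and incubated 72 h, then read for CellTox Green and CellTiter-Glo signals, with each plate normalised to 0.1 % DMSO and a positive kill control. The drug sensitivity score is based on the area under the fitted dose-response curve.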

BT-549 [10] = test: as above
Procedure, shortened: as §2

CAL-120 [11] = test: as above
Procedure, shortened: as §2

CAL-148 = test: as above
Procedure, shortened: as §2

HCC1143 [12] = test: as above
Procedure, shortened: as §2

HCC1937 [13] = test: as above
Procedure, shortened: as §2

MDA-MB-231 [14] = test: as above
Procedure, shortened: as §2

MDA-MB-436 [15] = test: as above
Procedure, shortened: as §2

MDA-MB-468 = test: as above
Procedure, shortened: as §2

MFM-223 [16] = test: as above
Procedure, shortened: as §2

Compound	drug sensitivity score (BT-474 [1])	drug sensitivity score (BT-549 [2])	drug sensitivity score (CAL-120 [3])	drug sensitivity score (CAL-51)	drug sensitivity score (CAL-85-1)	drug sensitivity score (DU-4475)	drug sensitivity score (HCC1143 [4])	drug sensitivity score (HCC1599)	drug sensitivity score (HCC1937 [5])	drug sensitivity score (HDQ-P1)	drug sensitivity score (Hs578T)	drug sensitivity score (MDA-MB-231 [6])	drug sensitivity score (MDA-MB-436 [7])	drug sensitivity score (MDA-MB-453)	drug sensitivity score (MFM-223 [8])	drug sensitivity score (SK-BR-3)	drug sensitivity score (BT-474 [9])	drug sensitivity score (BT-549 [10])	drug sensitivity score (CAL-120 [11])	drug sensitivity score (CAL-148)	drug sensitivity score (HCC1143 [12])	drug sensitivity score (HCC1937 [13])	drug sensitivity score (MDA-MB-231 [14])	drug sensitivity score (MDA-MB-436 [15])	drug sensitivity score (MDA-MB-468)	drug sensitivity score (MFM-223 [16])
O=C(O)C1(C(=O)O)CCC1.[NH2-].[NH2-].[Pt+2] [Carboplatin]	0	0	0	1.03	0	0	0	0	0	0	0	0	0	1.79	1.39	0	0	0	0	0	0	0	0	0	0	0
COc1cc2c(Oc3ccc4[nH]c(C)cc4c3F)ncnc2cc1OCCCN1CCCC1 [Cediranib]	0	0	0	0	0	0	0	0	0	0	0	0	0	0	0	0	0	0	0	0	0	0	0	0	0	1.86
Cc1ccc(-c2cc(C(F)(F)F)nn2-c2ccc(S(N)(=O)=O)cc2)cc1 [Celecoxib]	0	0	0	0	0	0	0	0	2.89	4.34	0	0	3.91	1.65	0	0	0	0	0	0	0	0	0	0	0	0
Nc1ccccc1NC(=O)c1ccc(CNC(=O)OCc2cccnc2)cc1 [Entinostat]	3.64	0	8.06	1.7	5.41	2.81	2.98	4.98	4.61	0	2.77	4.99	0	5.77	5.32	12.4	2.59	8.43	0	4.83	3.36	0	2.59	2.51	4.34	3.34
Nc1nc(F)nc2c1ncn2[C@@H]1O[C@H](CO)[C@@H](O)[C@@H]1O [Fludarabine]	0	0.397	0	0	0	0	0	0	4.57	0	0	0	0	0	0	1.12	0	0.896	0.352	0	0	0	0	1.1	0	0
O=C(Cc1ccc(-c2ccc(OCCN3CCOCC3)cc2)cn1)NCc1ccccc1 [KX2-391]	11.2	24.1	23.4	24.2	19.6	25.9	23.1	7.95	24.2	16	25.9	24.2	14.6	21.5	17.9	25	12.8	16.3	11	16.9	14.7	8.24	14.1	21	20	15.6
N#Cc1ccc(C(c2ccc(C#N)cc2)n2cncn2)cc1 [Letrozole]	0	0	0	0	0	0	0	3.7	1.74	0	0	0	0	0	0	0	0	0	0	0	0	0	0	0	0	0
CCN(CC)CCCC(C)Nc1c2ccc(Cl)cc2nc2ccc(OC)cc12 (centres undefined) [Mepacrine]	4.38 and 1.69	2.79 and 5	6.95 and 4.06	3.49 and 2.1	4.8 and 2.06	4.6 and 3.08	3.86 and 1.45	5.6 and 4.64	9 and 9.95	6.58 and 6.72	2.46 and 1.85	8.94 and 9.12	6.69 and 2.28	6.26 and 3.66	2.66 and 2.79	5.2 and 2.74	0	0	0	0	0	0	0	0	0	0
C[C@H]1C[C@@H]2[C@H]([C@@H](O)C[C@@]3(C)[C@H]2CC[C@]3(O)C(=O)CO)[C@@]2(C)C=CC(=O)C=C12 [Methylprednisolone]	0	3.25	0	0	0	0	0	0	0	0	0	0	0	6.93	0	0	0	0	6.14	0	0	0	0	0	0	0
